The values below come from PubChem BioAssay AID1996.

Converted amounts (≈) assume the structure as drawn. Some results are limits rather than exact numbers.

For the data set the following is noted: buffer; pH 7.4; 200.0 µM.
Compound `CCCc1cc(=O)[nH]c(Nc2ccc(Cl)cc2)n1` displayed a solubility (kinetic) of 4.4 µg/mL (≈ 16.7 µM).

In turn, `CCOC(=O)c1cc2c(ccn2C)n1Cc1ccc(C#N)cc1` came in with a kinetic solubility of 2.3 µg/mL (≈ 7.48 µM).

`CN(NC1OC(=O)c2ccccc21)c1ccccc1[N+](=O)[O-]` (configuration not stated) gave a solubility (kinetic) of more than 44.9 µg/mL.

`Cc1ccc(O)c(NC(=S)NC(=O)/C=C/c2ccccc2)c1` showed a solubility (kinetic) of less than 0.3 µg/mL.

As for `O=C(O)c1csc(-c2cccc(Cl)c2)n1`, the solubility (kinetic) amounted to 33.9 µg/mL (≈ 141 µM).

`O=S(=O)(NCC1CCCO1)c1ccc(Cl)nc1` (configuration not stated) showed a solubility (kinetic) of more than 41.5 µg/mL.

Compound `COC(=O)C1CCN(CC(=O)NC(=O)NC2CCCCC2)CC1` came in with a solubility (kinetic) of more than 48.8 µg/mL.

Compound `O=C(NCCCN1CCOCC1)C1Cc2c(ccc3ccccc23)O1` (configuration not stated) came in with a kinetic solubility of more than 51.1 µg/mL.

Compound `COC(=O)C1CN(C(=O)COc2ccccc2)c2ccccc2O1` (configuration not stated) showed a solubility (kinetic) of 48.7 µg/mL (≈ 149 µM).

`CC(C)(C)NC(=O)N1CCN(c2ncccc2C(F)(F)F)CC1` registered a kinetic solubility of more than 49.6 µg/mL.

`Cc1ccccc1OCC(O)CN(CCO)Cc1ccccc1.Cl` (configuration not stated) gave a kinetic solubility of 40.4 µg/mL.

For `COc1ccc(C(CNC(=O)Cc2c(F)cccc2Cl)N2CCCCC2)cc1` (configuration not stated), the solubility (kinetic) was determined as 59.1 µg/mL (≈ 146 µM).

For `Nc1ccccc1SC1CC(=O)N(c2ccc3c(c2)OCO3)C1=O` (configuration not stated), the kinetic solubility was less than 0.4 µg/mL.

Compound `Cn1ccnc1C(=O)c1ccc(N)cc1` registered a solubility (kinetic) of more than 30.2 µg/mL.

On to `CCC1(C)Cc2ccccc2-c2nc(SCC(N)=O)[nH]c(=O)c21` (configuration not stated), for which the kinetic solubility was 0.8 µg/mL (≈ 2.43 µM).

With `O=C(CCc1ccccc1)Nc1ccc2c(c1)OCO2`, the kinetic solubility worked out at 26.6 µg/mL (≈ 98.8 µM).

In the case of `CCc1ccc(NC(=S)NCc2ccccc2)cc1`, the kinetic solubility stood at 27.4 µg/mL (≈ 101 µM).

Compound `Cc1cc2[nH]c3ccccc3c2cn1` showed a kinetic solubility of more than 27.3 µg/mL.

`Cc1ccc(C)c(S(=O)(=O)NCCC(=O)N2CCCC(C(N)=O)C2)c1` (configuration not stated) yielded a kinetic solubility of more than 55.1 µg/mL.

`CC1CCN(C2=NC(=O)/C(=C/c3ccccc3F)S2)CC1` yielded a kinetic solubility of 14.3 µg/mL (≈ 47 µM).

In the case of `CC(C)(C)CC(=O)Nc1ccc(S(=O)(=O)N2CCCC2)cc1`, the kinetic solubility is more than 48.7 µg/mL.

For the compound `OC(CCN1CCOCC1)c1ccccc1` (configuration not stated), the kinetic solubility came out at 31.3 µg/mL (≈ 141 µM).

As to `CC(C)c1nc2oc3c(NCCO)ncnc3c2c2c1COC(C)(C)C2`, the kinetic solubility was determined as 48.9 µg/mL (≈ 137 µM).

Turning to `COc1ccc(/C=C/c2ccc3cccc(O)c3n2)cc1Br`, the solubility (kinetic) is less than 0.8 µg/mL.

The compound `O=C(CCNC(=O)c1ccccc1Cl)Nc1ccncc1` had a solubility (kinetic) of 44.3 µg/mL (≈ 146 µM).

Consider `C=C(C)CN1C(=O)C2(OCCO2)c2cc(Br)ccc21`, for which the solubility (kinetic) was 41.1 µg/mL (≈ 127 µM).

With `COC(=O)c1sccc1NC(=S)Nc1cc(C)ccc1OC`, the solubility (kinetic) was found to be 36.3 µg/mL (≈ 108 µM).

`Brc1ccc(COc2cccc3cccnc23)cc1` displayed a kinetic solubility of 2.3 µg/mL (≈ 7.32 µM).

Compound `Cc1nc(Cl)sc1C(=O)Nc1ccccc1Cl` showed a kinetic solubility of 21.7 µg/mL (≈ 75.6 µM).

Consider `COC(=O)C1=C(C)N(c2ccccc2)/C(=C/c2ccco2)C1=O`, for which the kinetic solubility came to 3.3 µg/mL (≈ 10.7 µM).

The compound `Cc1cccc(CC(=O)NCCN2CCOCC2)c1` registered a kinetic solubility of more than 39.4 µg/mL.

The compound `CS(=O)(=O)N1CCCC(C(=O)Nc2cccc(F)c2)C1` (configuration not stated) registered a solubility (kinetic) of more than 45.1 µg/mL.

In turn, `CCOC(=O)C1CCN(S(=O)(=O)c2ccc3c4c(cccc24)C(=O)N3CC)CC1` showed a solubility (kinetic) of 10.4 µg/mL (≈ 25 µM).

Turning to `O=C(CN1CCN(S(=O)(=O)c2ccc(Cl)cc2)CC1)N1CCCC1`, the solubility (kinetic) worked out at 48.7 µg/mL (≈ 131 µM).

In turn, `CC[N+](C)(CC)CCC(c1ccccc1)C1CCCCC1` (configuration not stated) came in with a solubility (kinetic) of 29.5 µg/mL.

Take `O=C(NC1=NCCS1)c1cccc(OC(F)F)c1`: the solubility (kinetic) stood at 23.9 µg/mL (≈ 87.8 µM).

As for `CC(=O)Cn1cnc2scc(-c3ccc(C)c(C)c3)c2c1=O`, the solubility (kinetic) turned out to be 43.7 µg/mL (≈ 140 µM).

On to `Nc1ccc2nc(-c3cccc(-c4nc5ccc(N)cc5[nH]4)n3)[nH]c2c1`, for which the kinetic solubility came out at 21.5 µg/mL (≈ 63 µM).

Compound `O=C1NC(CCc2ccccc2)C(=O)N1CCOc1ccccc1` (configuration not stated) gave a solubility (kinetic) of 2.5 µg/mL (≈ 7.71 µM).

In turn, `Cc1cc(C)c(NC(=O)C2CCCO2)c(C)c1NC(=O)C1CCCO1` (configuration not stated) showed a solubility (kinetic) of more than 52 µg/mL.

Turning to `CN(C)c1ccc(C(=O)OCC(=O)N2CCCCCC2)cc1`, the kinetic solubility is 33.9 µg/mL (≈ 111 µM).

`Cc1ccc(C(=O)Cn2c(C(=O)O)cc3ccccc32)cc1` showed a solubility (kinetic) of more than 44 µg/mL.

In the case of `Cl.NCC12CC3CC(C1)CC(c1ccc(Cl)cc1)(C3)C2`, the kinetic solubility is more than 46.8 µg/mL.

The compound `CC(=O)Nc1ccc(C(=O)NCC(c2ccco2)N(C)C)cc1` (configuration not stated) returned a solubility (kinetic) of 44.7 µg/mL (≈ 142 µM).

As to `Cc1cc(Cl)ccc1OC(C)C(=O)NC(C)C1CCCO1` (configuration not stated), the kinetic solubility was more than 46.8 µg/mL.

`Cc1ccc(/C(O)=C/C(=O)C(=O)NC23CC4CC(CC(C4)C2)C3)cc1`: the kinetic solubility is 8.4 µg/mL (≈ 24.7 µM).

`O=C(O)C1(c2ccccc2)CCC(Nc2ccccc2)C1` (configuration not stated) showed a solubility (kinetic) of 39.7 µg/mL (≈ 141 µM).

For the compound `O=C(O)c1ccccc1NCCO`, the solubility (kinetic) is 24 µg/mL (≈ 132 µM).

`O=C(O)CCC(=O)Nc1ccc(-c2nc3ccc(C(=O)c4ccccc4)cc3[nH]2)cc1` displayed a kinetic solubility of 60.1 µg/mL (≈ 145 µM).

`CCOc1ccc(-c2csc3nc[nH]c(=O)c23)cc1` yielded a kinetic solubility of 18.9 µg/mL (≈ 69.4 µM).

With `CC1CN(C(=O)CCS(=O)(=O)c2ccccc2)CC(C)O1` (configuration not stated), the kinetic solubility is 43.2 µg/mL (≈ 139 µM).

For the compound `CNc1ccc([N+](=O)[O-])cc1-c1nc2ccccc2[nH]c1=O`, the solubility (kinetic) came to 0.2 µg/mL (≈ 0.675 µM).
